# Measured values as given in patent publication US4187312A, “3-Hydroxy-4,4-dimethyl-5-pyrrolidone derivatives” (Beecham Group Limited, priority 1975, dated 1980).
# Legend:
# [1] = system: aerosol administered histamine challenge; assay: protection of conscious guinea pigs from an aerosol administered histamine challenge; format: in vivo, guinea pig; conditions: 30 minutes before continuous aerosol of histamine
# Experimental: The compounds were examined for their ability to protect conscious guinea pigs from an aerosol administered histamine challenge. The compounds were given 30 minutes before the animals were challenged with a continuous aerosol of histamine.
# [2] = system: pentagastrin-stimulated gastric acid secretion; assay: inhibition of pentagastrin-stimulated gastric acid secretion in the perfused rat stomach preparation (Ghosh and Schild preparation); format: in vivo; conditions: 500 μg/kg, intravenously
# Experimental: The anti-secretory activity of the compounds was determined by their inhibition of pentagastrin-stimulated gastric acid secretion in the perfused rat stomach preparation (Ghosh and Schild preparation).
# mice = assay: toxicity in mice; format: in vivo; conditions: dosed up to 900 mg/kg, subcutaneously
# [3] = system: 5-hydroxytryptamine-induced bronchoconstriction; assay: inhibition of 5-hydroxytryptamine-induced bronchoconstriction in the anaesthetised, artificially respired guinea pig (Konzett-Rossler preparation); format: in vivo; conditions: Cavia porcellus, iv, intravenously, read-out: inhibition of bronchoconstriction, IC50
# Source text: The compounds were examined for their ability to inhibit 5-hydroxytryptamine-induced bronchoconstriction in the anaesthetised, artificially respired guinea pig (Konzett-Rossler preparation).
Compound,"time taken to elicit a pre-convulsive cough compared with control animals ([1]; 2.5 mg/kg, intra-peritoneally)",time taken to elicit a pre-convulsive cough compared with control animals ([1]; 10 mg/kg orally),inhibition of acid secretion [2],toxic symptoms (mice),ED50 [3] [mg/kg]
"CCCCCCC(C)(O)CCN1C(=O)C(C)(C)C(=O)C1CCCCCCC(=O)O (centres unmarked) [2-(6'-Carboxy-n-hexyl)-4,4-dimethyl-1-(3""-hydroxy-3""-methyl-n-nonyl)pyrrolidin-3,5-dione]",significantly prolonged,significantly prolonged,–,–,–
"CCCCCCC(C)(O)CCN1C(=O)C(C)(C)C(=O)C1CCCCCCC(=O)OCC (centres unmarked) [4,4-Dimethyl-2-(6'-ethoxycarbonyl-n-hexyl)-1-(3""-hydroxy-3""-methyl-n-nonyl)-pyrrolidin-3,5-dione]",–,–,inhibited acid secretion,No toxic symptoms were observed,~0.01
